According to patent US9908899B2 (BIOMARIN PHARMACEUTICAL INC., priority 2011, dated 2018):
Where two headings read alike, the source gives them in different places.

Key:
HDAC2 = HDAC2 (Homo sapiens (Human), UniProt Q92769); assay: HDAC activity inhibition assay, HDAC2; format: biochemical
Procedure: (§1) The HDAC activity inhibition assay was performed as follows to determine the ability of a test compound to inhibit HDAC enzymatic activity. […] Following pre-incubation, Fluor-de-Lys™ substrate (Enzo Life Sciences, Plymouth Meeting, Pa., BML-KI104-0050) was added to a final concentration of 10 μM and plates were further incubated for 30 minutes at room temperature. […] IC50 values were calculated by using a sigmoidal dose-response (variable slope) equation in GraphPad Prism® 5 for Windows (GraphPad Software, La Jolla, Calif.).

HDAC1 = HDAC1 (Homo sapiens (Human), UniProt Q13547); assay: HDAC activity inhibition assay, HDAC1; format: biochemical; conditions: Table 1; 2 hours pre-incubation
Procedure: as §1

HDAC3/NcoR2 = HDAC3/NcoR2 (Homo sapiens (Human), UniProt O15379); assay: HDAC activity inhibition assay, HDAC3/NcoR2; format: biochemical
Procedure: as §1

Frataxin (FXN) mRNA = assay: Effect of HDAC inhibitors on frataxin (FXN) mRNA expression in Friedreich's ataxia patient primary lymphocytes; format: cell-based, human; conditions: Homo sapiens, Lymphocyte; Friedreich's ataxia patient primary lymphocytes, 48 hours; read-out: FXN 2x (concentration required for a 2-fold increase in FXN mRNA)
Procedure: Blood is collected from Friedreich's ataxia patient donors into tubes containing the anti-coagulant EDTA. Primary lymphocytes are isolated using Lymphocyte Separation Medium (MP Biomedicals, Solon, Ohio) following the manufacturer's instructions and including a few modifications made by Repligen. After a final wash in Phosphate Buffered Saline (PBS), the cells are distributed into a 6-well cell culture plate in cell growth medium. The test HDAC inhibitor compound is added to cells in a dose escalating manner (usually concentrations range from 1 to 10 μM) and 0.1% DMSO is added to one well of cells as a no treatment control. Cells are incubated for 48 hours at 37° C. in a CO2 incubator; cell counts are taken using a Countess automated cell counter (Invitrogen, Carlsbad, Calif.). Equivalent numbers of cells for all treatment conditions are pelleted by centrifugation and resuspended in cell lysis buffer. Total RNA is isolated from approximately 1×10^6 primary lymphocytes using a RNeasy Mini Kit (Qiagen, Valencia, Calif.), following the manufacturer's instructions and including an optional on-column DNAse digestion step. The isolation is performed either manually or using the QIAcube (Qiagen, Valencia, Calif.), an instrument that automates much of the isolation procedure. The RNA yield and concentration is determined using a Nanodrop spectrophotometer (Thermo Fisher Scientific, Waltham, Mass.) and depending on the RNA concentration, one of two protocols is used to measure frataxin (FXN) transcript levels. For samples containing at least 15 ng/μL RNA a TaqMan® Probe-based (Applied Biosystems, Carlsbad, Calif.) qRT-PCR method is used, while for samples containing less than 15 ng/μL RNA a SYBR Green qRT-PCR method is used. In the TaqMan® Probe-based method specific primer/probe pairs for FXN and GAPDH are multiplexed in each reaction. In the SYBR Green method FXN and GAPDH are amplified in separate reactions. In both methods each RNA sample is analyzed in triplicate (preferably) or duplicate (minimally) using a one-step qRT-PCR master mix that contains all the components necessary for cDNA synthesis and PCR amplification in a single, continuous reaction. After cycling is complete, MxPro Software (Agilent Technologies, Santa Clara, Calif.) is used to analyze the collected data and determine the relative amount of FXN mRNA compared to a control sample. An adaptive baseline method is used for baseline correction whereby an algorithm automatically selects the appropriate baseline cycles for each well and each dye. An amplification-based threshold is set and the corresponding threshold cycle, or Ct, is obtained for calculating target concentration. The Ct values for each target gene (FXN and GAPDH) for each replicate series are averaged. The amount of FXN (or GAPDH) in the sample is determined as the relative quantity to the calibrator where the calibrator sample is assigned an arbitrary quantity of 1. The following equation is used: Relative quantity to the calibrator=2^−ΔCt where ΔCt=(Ct_gene)unknown−(Ct_gene)calibrator, gene is either FXN or GAPDH, calibrator is a DMSO control sample, and unknown is a HDACi treated sample. The relative quantity of FXN is normalized to cell number and RNA input. Data is reported in Tables 2 and 4 below, where the concentration required for a 2-fold increase in FXN mRNA is reported as A if less than 5 μM, B if between 5 and 10 μM, C if greater than 10 μM.

[1] = Acid stability determination; format: physicochemical; conditions: 100 μM in 0.01 M HCl, 50° C.
Procedure: A 100 μM solution of test compound was prepared by dilution of a 10 mM DMSO stock solution in a 0.01 M solution of HCl in deionized water. Immediately after mixing, an aliquot (100 μL) was sampled and analyzed by HPLC/UV. The area under the compound peak was determined and used as the time zero reference point. The remainder of the acid sample was incubated at 50° C. and samples were taken after 2, 4, and 24 hours of incubation. On a few occasions, samples were taken at 30 rather than 24 hours. These were analyzed by the same HPLC/UV method and the area of the peak corresponding to the test compound was measured. Percent remaining at a given time point was then calculated as the ratio of the area under the peak after incubation to that at time zero times 100. In those cases where a 30 hour time point was recorded, the percent remaining at 24 hours was obtained by interpolation of the percent remaining versus time curve assuming a unimolecular process, i.e. a monoexponential decay. Percent remaining after 24 hours incubation are presented in Tables 2 and 4 below, where A corresponds to more than 60%, B is between 40 and 60%, C covers 20 to 40% and D means less than 20%.

[2] = Table 1, 2 hours pre-incubation

Chain of HDAC1 (Q13547 whole entry): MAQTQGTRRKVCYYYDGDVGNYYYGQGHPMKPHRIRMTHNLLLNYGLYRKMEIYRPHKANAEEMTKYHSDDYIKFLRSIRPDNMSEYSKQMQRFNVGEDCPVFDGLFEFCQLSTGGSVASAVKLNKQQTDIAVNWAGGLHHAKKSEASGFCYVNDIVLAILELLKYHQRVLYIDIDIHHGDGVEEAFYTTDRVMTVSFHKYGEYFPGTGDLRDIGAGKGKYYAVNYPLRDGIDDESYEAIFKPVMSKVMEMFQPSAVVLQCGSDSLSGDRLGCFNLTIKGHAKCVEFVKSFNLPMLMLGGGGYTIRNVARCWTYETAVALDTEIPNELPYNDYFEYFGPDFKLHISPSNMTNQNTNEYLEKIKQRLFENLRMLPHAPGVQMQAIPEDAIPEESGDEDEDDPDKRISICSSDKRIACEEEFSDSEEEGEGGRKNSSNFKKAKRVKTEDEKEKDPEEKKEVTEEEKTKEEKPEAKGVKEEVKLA
Chain of HDAC3/NcoR2 (O15379 whole entry): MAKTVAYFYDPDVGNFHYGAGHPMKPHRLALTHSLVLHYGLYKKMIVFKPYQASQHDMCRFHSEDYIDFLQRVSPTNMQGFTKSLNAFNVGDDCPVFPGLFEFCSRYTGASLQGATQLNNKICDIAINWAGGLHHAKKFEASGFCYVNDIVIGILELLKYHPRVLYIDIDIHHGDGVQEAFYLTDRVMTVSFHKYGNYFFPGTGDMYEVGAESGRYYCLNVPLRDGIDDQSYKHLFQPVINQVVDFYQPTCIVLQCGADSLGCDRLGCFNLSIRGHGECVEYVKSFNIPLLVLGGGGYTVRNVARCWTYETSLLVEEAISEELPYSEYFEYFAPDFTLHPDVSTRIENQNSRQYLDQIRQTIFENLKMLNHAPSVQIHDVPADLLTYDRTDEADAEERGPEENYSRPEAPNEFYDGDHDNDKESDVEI
Chain of HDAC3/NcoR2 (Q9Y618 395-489 partner): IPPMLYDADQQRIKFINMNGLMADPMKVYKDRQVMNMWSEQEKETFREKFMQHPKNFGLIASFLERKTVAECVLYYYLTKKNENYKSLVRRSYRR
Chain of HDAC2 (Q92769 whole entry): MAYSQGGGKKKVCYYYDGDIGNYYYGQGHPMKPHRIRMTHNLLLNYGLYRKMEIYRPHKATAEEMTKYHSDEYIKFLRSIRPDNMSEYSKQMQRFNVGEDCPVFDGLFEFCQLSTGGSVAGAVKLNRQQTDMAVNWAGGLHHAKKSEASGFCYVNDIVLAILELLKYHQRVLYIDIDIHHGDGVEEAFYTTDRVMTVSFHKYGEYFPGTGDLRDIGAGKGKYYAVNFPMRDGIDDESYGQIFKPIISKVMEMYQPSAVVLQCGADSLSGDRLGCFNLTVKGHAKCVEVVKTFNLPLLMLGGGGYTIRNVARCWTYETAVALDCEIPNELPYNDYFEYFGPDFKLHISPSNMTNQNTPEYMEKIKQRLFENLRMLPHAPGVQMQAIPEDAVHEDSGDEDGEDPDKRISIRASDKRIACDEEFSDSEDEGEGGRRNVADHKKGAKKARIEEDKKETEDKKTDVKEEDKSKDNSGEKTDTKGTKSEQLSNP

| IC50 (HDAC2; [2]) [µM] | IC50 (HDAC1) [µM] | IC50 (HDAC3/NcoR2; [2]) [µM] | acid stability (percent remaining after 24 hours incubation) [1] | Compound | EC (2-fold FXN mRNA) (Frataxin (FXN) mRNA) [µM] | IC50 (HDAC2) [µM] | IC50 (HDAC3/NcoR2) [µM] |
| --- | --- | --- | --- | --- | --- | --- | --- |
| < 1 | < 1 | < 1 |  | Nc1ccccc1NC(=O)/C=C/c1cnn(CCCc2ccccc2)c1 [D8] | > 10 |  |  |
| < 1 | < 1 | < 1 | A (A corresponds to more than 60%) | Nc1ccccc1NC(=O)/C=C/c1cnn(CCCCc2ccccc2)c1 [D9] | < 5 |  |  |
| < 1 | < 1 | < 1 |  | Nc1ccccc1NC(=O)/C=C/c1cnn(CC/C=C/c2ccccc2)c1 [D11] | 5 to 10 |  |  |
| < 1 | < 1 | < 1 |  | Nc1ccccc1NC(=O)/C=C/c1cnn(CCCOc2ccccc2)c1 [D15] |  |  |  |
| 1 to 5 | < 1 | < 1 |  | Nc1ccccc1NC(=O)c1ccc(C=C2CN(Cc3ccc4cc[nH]c4c3)C2)c(Cl)c1 [F5, 4-((1-((1H-indol-6-yl)methyl)azetidin-3-ylidene)methyl)-N-(2-aminophenyl)-3-chlorobenzamide] |  |  |  |
| 1 to 5 | < 1 | < 1 |  | Nc1ccccc1NC(=O)/C=C/c1cnn(Cc2ccc(F)cc2)c1 [D5] |  |  |  |
| 1 to 5 |  |  |  | Nc1ccccc1NC(=O)c1ccc(C=C2CN(Cc3cccnc3)C2)c(Cl)c1 [F6] |  |  |  |
| 1 to 5 | < 1 | < 1 |  | Nc1ccccc1NC(=O)/C=C/c1cnn(CC(F)(F)c2ccccc2)c1 [D10] | > 10 |  |  |
| 1 to 5 | < 1 | < 1 | A (A corresponds to more than 60%) | Nc1ccccc1NC(=O)/C=C/c1csc(C/C=C/c2ccccc2)n1 [E2, (E)-N-(2-aminophenyl)-3-(2-cinnamylthiazol-4-yl)acrylamide] |  |  |  |
| < 1 | < 1 | < 1 |  | Nc1ccccc1NC(=O)/C=C/c1cnn(CCc2c[nH]c3ccccc23)c1 [D13] |  |  |  |
| 5 to 10 | 1 to 5 | < 1 |  | CCOCc1cn2cc(/C=C/C(=O)Nc3ccccc3N)sc2n1 [E1, (E)-N-(2-aminophenyl)-3-(6-(ethoxymethyl)imidazo[2,1-b]thiazol-2-yl)acrylamide] |  |  |  |
|  | < 1 | < 1 | B (B is between 40 and 60%) | Nc1ccccc1NC(=O)c1ccc(CC2CN(Cc3ccc4cc[nH]c4c3)C2)cc1 [F4] | < 5 |  |  |
| 1 to 5 | 1 to 5 |  |  | Cc1cccc(Cn2cc(/C=C/C(=O)Nc3ccccc3N)cn2)n1 [D6] | > 10 |  |  |
| 1 to 5 | < 1 | < 1 | B (B is between 40 and 60%) | Nc1ccccc1NC(=O)c1ccc(C=C2CCN(C(=O)OCc3ccccc3)CC2)cc1 [F1] |  |  |  |
| 1 to 5 | 1 to 5 | < 1 |  | Nc1cc(F)ccc1NC(=O)/C=C/c1cnn(CCOc2ccccc2)c1 [D16] |  |  |  |
|  |  |  | A (A corresponds to more than 60%) | CN(CCCn1cc(/C=C/C(=O)Nc2ccccc2N)cn1)c1ccccc1 [D12] |  |  |  |

The remaining lines, values behind:

| Compound | IC50 (HDAC2; [2]) [µM] | IC50 (HDAC1) [µM] | IC50 (HDAC3/NcoR2; [2]) [µM] | acid stability (percent remaining after 24 hours incubation) [1] | EC (2-fold FXN mRNA) (Frataxin (FXN) mRNA) [µM] | IC50 (HDAC2) [µM] | IC50 (HDAC3/NcoR2) [µM] |
| --- | --- | --- | --- | --- | --- | --- | --- |
| Nc1ccccc1NC(=O)/C=C/c1cnn(C/C=C/c2ccc(F)cc2)c1 [B2] | 1 to 5 | < 1 | < 1 |  |  |  |  |
| CCn1cc(/C=C/C(=O)Nc2ccccc2N)cn1 [C1] | 1 to 5 | 1 to 5 | < 1 |  |  |  |  |
| Nc1ccccc1NC(=O)/C=C/c1cc2ccccn2n1 [A8] | 1 to 5 | < 1 | < 1 | B (B is between 40 and 60%) |  |  |  |
| Nc1ccccc1NC(=O)/C=C/c1cnc2ccccn12 [A6, (E)-N-(2-aminophenyl)-3-(imidazo[1,2-a]pyridin-3-yl)acrylamide] | 5 to 10 | 5 to 10 | < 1 |  |  |  |  |
| Cn1cnc(/C=C/C(=O)Nc2ccccc2N)c1 [A12] | 5 to 10 | 1 to 5 | < 1 |  |  |  |  |
| Cn1cc(/C=C/C(=O)Nc2ccc(F)cc2N)cn1 [C2] |  |  |  |  |  | > 20 | 1 to 5 |
| Nc1ccccc1NC(=O)/C=C/c1cnn(CC2CC2)c1 [B1] | 5 to 10 | 1 to 5 | < 1 |  |  |  |  |
| Cc1ncc(/C=C/C(=O)Nc2ccccc2N)s1 [A3] | 5 to 10 | 5 to 10 | < 1 |  |  |  |  |
| Nc1ccccc1NC(=O)/C=C/c1cnn(-c2ccccc2)c1 [A11] | 1 to 5 | 1 to 5 | < 1 | A (A corresponds to more than 60%) |  |  |  |
| Nc1ccccc1NC(=O)/C=C/c1cnn(CCOc2ccc(F)cc2)c1 [B6] | < 1 | < 1 | < 1 |  |  |  |  |
| Cc1cc(/C=C/C(=O)Nc2ccccc2N)on1 [A5] | 10 to 20 | 10 to 20 | < 1 | B (B is between 40 and 60%) |  |  |  |
| Nc1ccccc1NC(=O)/C=C/c1cnn(CCOc2cc(F)cc(F)c2)c1 [B3, (E)-N-(2-aminophenyl)-3-(1-(2-(3,5-difluorophenoxy)ethyl)-1H-pyrazol-4-yl)acrylamide] | < 1 | < 1 | < 1 |  |  |  |  |
| Nc1ccccc1NC(=O)/C=C/c1cnn(CCOc2ccc(C(F)(F)F)cc2)c1 [B4] | 1 to 5 | < 1 | < 1 |  |  |  |  |
| Cc1nc(/C=C/C(=O)Nc2ccccc2N)co1 [A4] | > 20 | > 20 | 1 to 5 |  |  |  |  |
| Nc1ccccc1NC(=O)/C=C/c1cnn(CCOc2cc(F)cc(Cl)c2)c1 [B5, (E)-N-(2-aminophenyl)-3-(1-(2-(3-chloro-5-fluorophenoxy)ethyl)-1H-pyrazol-4-yl)acrylamide] | < 1 | < 1 | < 1 |  |  |  |  |
| Nc1ccccc1NC(=O)/C=C/c1cn2ccnc2s1 [A10] | 1 to 5 | 1 to 5 | < 1 |  |  |  |  |
| Cn1ccc(/C=C/C(=O)Nc2ccccc2N)n1 [A7] | 1 to 5 | 1 to 5 | < 1 |  |  |  |  |
| Nc1ccccc1NC(=O)/C=C/c1cn2ccccc2n1 [A9] | 1 to 5 | 1 to 5 | < 1 |  |  |  |  |
| Cc1nc(/C=C/C(=O)Nc2ccccc2N)cs1 [A1] | 5 to 10 | 1 to 5 | < 1 |  |  |  |  |
| Cn1cc(/C=C/C(=O)Nc2ccccc2N)cn1 [A2] | 10 to 20 | 5 to 10 | < 1 | B (B is between 40 and 60%) |  |  |  |
